Data set [1] deals with T1, CFTR (Homo sapiens, UniProt P13569). Briefly: Apical Cl− current in CFTR-expressing FRT cells. The settings on record: for % inhibition at 50 μM: apical membrane Cl− current, FRT cells; for Ki: Ki is compound concentration giving 50% inhibition of apical membrane Cl− current in CFTR-expressing FRT cells. Format: cell-based.
The target in data set [2] is T1, CFTR. The following applies: read-out: concentration giving 50% inhibition of CFTR Cl− channel function; intact cells, depending on cell type and membrane potential; ref Ma et al., 2002a; Taddei et al., 2004; cited from earlier work.
Data set [3] has as its system CFTR. The data set is classed as in vivo. The settings on record: 100 μM in all solutions; mice.
The next data set addresses MDR-1 (Homo sapiens, UniProt P08183). Briefly: Rhodamine 123 uptake in cells overexpressing MDR-1. The following applies: 100 μM. Format: cell-based.

Some results are limits rather than exact numbers.

T1 sequence (P13569 whole entry): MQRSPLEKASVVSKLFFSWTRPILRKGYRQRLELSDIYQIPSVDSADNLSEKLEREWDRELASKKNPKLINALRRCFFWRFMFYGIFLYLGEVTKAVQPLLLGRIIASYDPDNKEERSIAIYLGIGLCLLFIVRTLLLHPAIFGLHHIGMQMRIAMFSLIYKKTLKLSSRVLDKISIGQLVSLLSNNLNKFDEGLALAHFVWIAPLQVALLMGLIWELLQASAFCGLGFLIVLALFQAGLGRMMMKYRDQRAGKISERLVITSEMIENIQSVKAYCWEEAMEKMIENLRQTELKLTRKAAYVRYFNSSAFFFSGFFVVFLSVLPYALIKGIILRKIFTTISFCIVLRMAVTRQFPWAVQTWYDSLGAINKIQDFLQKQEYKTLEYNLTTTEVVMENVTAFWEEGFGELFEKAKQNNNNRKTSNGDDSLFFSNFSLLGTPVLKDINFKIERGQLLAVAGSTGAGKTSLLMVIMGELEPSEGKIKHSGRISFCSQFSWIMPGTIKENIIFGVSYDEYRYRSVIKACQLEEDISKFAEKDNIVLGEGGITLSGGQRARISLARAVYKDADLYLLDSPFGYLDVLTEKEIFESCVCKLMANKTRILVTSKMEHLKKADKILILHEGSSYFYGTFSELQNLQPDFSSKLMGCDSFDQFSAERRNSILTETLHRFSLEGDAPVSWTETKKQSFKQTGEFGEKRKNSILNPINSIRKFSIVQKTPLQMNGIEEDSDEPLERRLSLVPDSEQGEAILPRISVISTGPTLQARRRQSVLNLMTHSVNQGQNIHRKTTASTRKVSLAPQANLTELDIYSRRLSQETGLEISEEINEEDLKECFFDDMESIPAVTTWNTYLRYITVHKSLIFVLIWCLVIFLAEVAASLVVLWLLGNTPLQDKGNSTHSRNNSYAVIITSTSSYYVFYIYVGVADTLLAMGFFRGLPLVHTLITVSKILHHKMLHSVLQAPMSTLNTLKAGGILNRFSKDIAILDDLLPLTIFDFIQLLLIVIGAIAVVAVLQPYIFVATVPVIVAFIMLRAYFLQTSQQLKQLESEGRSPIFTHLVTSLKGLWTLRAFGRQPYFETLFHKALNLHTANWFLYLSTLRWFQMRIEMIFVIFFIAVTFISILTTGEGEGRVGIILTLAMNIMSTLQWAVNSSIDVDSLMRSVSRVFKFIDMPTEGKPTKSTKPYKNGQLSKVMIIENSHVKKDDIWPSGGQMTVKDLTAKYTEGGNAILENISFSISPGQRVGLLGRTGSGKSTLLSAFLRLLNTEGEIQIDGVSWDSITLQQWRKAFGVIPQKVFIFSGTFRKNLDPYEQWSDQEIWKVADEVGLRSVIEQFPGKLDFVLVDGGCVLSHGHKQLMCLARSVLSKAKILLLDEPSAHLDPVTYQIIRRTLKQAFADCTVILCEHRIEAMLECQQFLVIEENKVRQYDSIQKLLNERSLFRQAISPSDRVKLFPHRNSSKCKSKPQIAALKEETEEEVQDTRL
MDR-1, sequence (P08183 whole entry): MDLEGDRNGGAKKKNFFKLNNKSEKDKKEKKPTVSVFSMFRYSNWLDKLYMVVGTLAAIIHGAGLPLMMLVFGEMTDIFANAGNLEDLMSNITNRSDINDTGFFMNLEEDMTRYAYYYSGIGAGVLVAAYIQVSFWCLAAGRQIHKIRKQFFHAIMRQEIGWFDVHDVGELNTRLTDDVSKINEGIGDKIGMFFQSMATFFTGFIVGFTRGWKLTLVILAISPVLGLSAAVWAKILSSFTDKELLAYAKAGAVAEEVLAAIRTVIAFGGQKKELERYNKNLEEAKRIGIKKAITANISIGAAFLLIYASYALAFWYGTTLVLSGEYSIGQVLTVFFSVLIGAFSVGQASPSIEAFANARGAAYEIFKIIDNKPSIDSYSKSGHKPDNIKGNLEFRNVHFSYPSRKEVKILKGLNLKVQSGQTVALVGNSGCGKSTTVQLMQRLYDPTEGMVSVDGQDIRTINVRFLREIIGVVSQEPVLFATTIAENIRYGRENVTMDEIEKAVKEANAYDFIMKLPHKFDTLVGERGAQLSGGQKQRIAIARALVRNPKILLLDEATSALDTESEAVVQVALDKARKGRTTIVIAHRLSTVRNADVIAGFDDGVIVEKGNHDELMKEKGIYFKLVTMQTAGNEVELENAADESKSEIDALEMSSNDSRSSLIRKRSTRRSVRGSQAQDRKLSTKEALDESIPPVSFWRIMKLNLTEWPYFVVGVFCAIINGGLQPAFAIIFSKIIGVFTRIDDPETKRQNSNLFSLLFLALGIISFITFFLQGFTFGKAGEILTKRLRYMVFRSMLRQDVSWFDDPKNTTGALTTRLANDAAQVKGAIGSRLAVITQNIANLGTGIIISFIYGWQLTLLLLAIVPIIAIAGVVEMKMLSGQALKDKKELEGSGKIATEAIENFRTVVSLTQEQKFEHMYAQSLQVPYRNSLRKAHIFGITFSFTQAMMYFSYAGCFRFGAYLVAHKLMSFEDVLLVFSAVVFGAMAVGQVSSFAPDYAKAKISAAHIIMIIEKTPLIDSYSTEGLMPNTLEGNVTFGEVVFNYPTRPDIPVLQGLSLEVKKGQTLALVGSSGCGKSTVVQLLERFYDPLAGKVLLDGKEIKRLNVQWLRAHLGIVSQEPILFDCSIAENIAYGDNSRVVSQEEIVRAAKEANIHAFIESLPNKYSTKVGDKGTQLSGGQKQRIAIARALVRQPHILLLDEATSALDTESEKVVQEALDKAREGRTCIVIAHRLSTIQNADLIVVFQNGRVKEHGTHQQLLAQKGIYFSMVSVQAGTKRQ

Take `O=C(COc1ccc2ccccc2c1)NN=Cc1cc(Br)c(O)c(Br)c1O` [AceH-401]: on CFTR [1], the “% inhibition at 50 μM” value is given as 84% and affinity was put at a Ki of 21 µM. As for `O=C(COc1ccc2ccccc2c1)NN=Cc1cc(Br)c(O)c(Br)c1` [AceH-402], on CFTR [1], the “% inhibition at 50 μM” value came out at 86% and affinity was put at a Ki of 17 µM.

As for `O=C(O)c1ccc(/C=C2\SC(=S)N(c3cccc(C(F)(F)F)c3)C2=O)cc1` [CFTRinh-172], the IC50 at CFTR [2] is 0.3 to 3 µM. For the molecule `O=S(=O)(O)c1cc(N=C=S)ccc1C=Cc1ccc(N=C=S)cc1S(=O)(=O)O` [DIDS], the “inhibition of the (CFTR-independent) hyperpolarization produced by low Cl−” value in the data set with CFTR [3] is recorded as “partial inhibition”. On to `COc1c(Br)cc(C=NNC(=O)CNc2ccc3ccccc3c2)c(O)c1Br` [GlyH-103], for which, at CFTR [1], the “% inhibition at 50 μM” value is reported as 56% and affinity was put at a Ki of 20 µM.

Turning to `CC(=NNC(=O)CNc1ccc2ccccc2c1)c1cc(Br)c(O)c(Br)c1` [GlyH-109], the Ki at CFTR [1] turned out to be 4.7 µM.

As to `O=C(CNc1ccc(Cl)cc1)NN=Cc1cc(Br)c(O)c(Br)c1` [GlyH-114], the Ki at CFTR [1] was 5 µM. On CFTR [1], `O=C(CNc1ccc(Cl)cc1)NN=Cc1cc(Br)c(O)c(Br)c1O` [GlyH-115] registered an inhibitory constant (Ki) of 6.7 µM. Take `Cc1ccc(NCC(=O)NN=Cc2cc(Br)c(O)c(Br)c2O)cc1` [GlyH-116]: the inhibitory constant (Ki) at CFTR [1] is 10 µM. Molecule `Cc1ccccc1NCC(=O)NN=Cc1cc(Br)c(O)c(Br)c1O` [GlyH-117] yielded a Ki at CFTR [1] of 25 to 50 µM. At CFTR [1], `O=C(CNc1cccc2ccccc12)NN=Cc1ccc(O)c(Br)c1` [GlyH-118] gave a Ki of 25 to 50 µM. Same read-out and setting: the result for `O=C(CNc1ccc2ccccc2c1)NN=Cc1ccc(Br)cc1` [GlyH-120] reads 25 to 50 µM.

Molecule `O=C(CNc1ccc(Cl)cc1)NN=Cc1ccc(O)cc1O` [GlyH-123] had an inhibition constant (Ki) on CFTR [1] of 25 to 50 µM. As for `O=C(CNc1ccc2cc3ccccc3cc2c1)NN=Cc1cc(Br)c(O)c(Br)c1O` [GlyH-124], the Ki on CFTR [1] was 25 to 50 µM. Same read-out and setting: the result for `O=C(CNc1ccc2cc3ccccc3cc2c1)NN=Cc1cc(Br)c(O)c(Br)c1` [GlyH-125] reads 25 to 50 µM.

As to `O=C(CNc1ccc2ccccc2c1)NNC(=O)c1cc(Br)c(O)c(Br)c1` [GlyH-202, 3,5-Dibromo-4-hydroxy-[2-(2-naphthalenamine)aceto] Benzoic Acid Hydrazide], at CFTR [1], the “% inhibition at 50 μM” value came to 57% and the affinity corresponds to a Ki of 22 µM. On CFTR [1], `CC(=NNC(=O)C(=O)Nc1ccc2ccccc2c1)c1cc(Br)c(O)c(Br)c1O` [OxaH-112] registered a Ki of 3 µM. Same read-out and setting: the result for `O=C(NN=Cc1cc(Br)c(O)c(Br)c1O)C(=O)Nc1ccc2ccccc2c1` [OxaH-203] reads over 50 µM. On the same count and under the same terms, the result for `O=C(NNC(=O)c1cc(Br)c(O)c(Br)c1)C(=O)Nc1ccc2ccccc2c1` [OxaH-204] reads over 50 µM. As for `O=C(NNCc1cc(Br)c(O)c(Br)c1O)C(=O)Nc1ccc2ccccc2c1` [OxaH-303], at CFTR [1], the “% inhibition at 50 μM” value turned out to be 70% and the affinity corresponds to a Ki of 10 µM. Consider `O=C(NNCc1cc(Br)c(O)c(Br)c1)C(=O)Nc1ccc2ccccc2c1` [OxaH-304], for which, at CFTR [1], the “% inhibition at 50 μM” value amounted to 78% and the inhibition constant Ki amounted to 12 µM. On to `COc1ccc(CCN(C)CCCC(C#N)(c2ccc(OC)c(OC)c2)C(C)C)cc1OC` (stereo not shown) [verapamil], for which the “increase of rhodamine 123 incorporation” value at MDR-1 is “greater than fivefold”.

Values taken from publication PMC2229623 (The Journal of General Physiology, 2004).
